This note sets out measurements from patent US11465983B2, “USP7 inhibitors for treating multiple myeloma” (Dana-Farber Cancer Institute, Inc., priority 2017, dated 2022).

SMILES strings stand for the structures.

By IC50 is commonly meant the point on the concentration scale where inhibition reaches its midpoint. A low value points to higher potency.

The first assay deals with USP7 (Homo sapiens, UniProt Q93009). Kind of assay: Ub-AMC assay (USP7 assay). It counts as biochemical. Set-up: fused on or other part: His tag from pET28aLIC; removed by thrombin for the catalytic domain, no removal step given for the full length. Conditions: USP7 assay. How it is done: USP7 and mutants were tested for their activity in Ubiquitin-AMC assay in presence or absence of inhibitors. […] For the same assay USP7 full length WT and Q351 mutant were used at 50 nM. […] The reaction was incubated 30 min at room temperature prior to the addition of 2 uM Ubiquitin-AMC (Boston Biochem) substrate. […] The calculated initial rate values were plotted against inhibitor concentrations to determine IC50s. All the experimental data were plotted using Prism GraphPad. FIG. 2A illustrates the structure guided optimization for the inhibition of USP7.
USP7, sequence (Q93009 208-560 limits assumed): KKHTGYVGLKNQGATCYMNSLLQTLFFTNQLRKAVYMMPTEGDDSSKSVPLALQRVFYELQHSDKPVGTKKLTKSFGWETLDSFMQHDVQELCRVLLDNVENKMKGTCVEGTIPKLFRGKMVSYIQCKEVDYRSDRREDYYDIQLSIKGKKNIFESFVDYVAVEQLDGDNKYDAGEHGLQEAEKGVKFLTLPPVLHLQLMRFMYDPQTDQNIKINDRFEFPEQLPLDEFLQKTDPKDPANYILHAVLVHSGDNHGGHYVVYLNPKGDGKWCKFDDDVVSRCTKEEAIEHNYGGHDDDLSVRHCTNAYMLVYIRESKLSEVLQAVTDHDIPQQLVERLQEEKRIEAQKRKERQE
ND refers to not disclosed.
For the compound `CCN(Cc1ccccc1)C(=O)N1CCC(O)(Cn2cnc3cc(Cl)ccc3c2=O)CC1` [Compound 39], the IC50 is 200 to 1000 nM.

For the compound `O=C([C@@H]1C[C@H]1c1ccccc1)N1CCC(O)(Cn2cnc3cc(Cl)ccc3c2=O)CC1` [Compound 74], the IC50 was above 10000 nM.

In the case of `O=c1c2ccc(Cl)cc2ncn1CC1(O)CCN(c2cc([N+](=O)[O-])ccn2)CC1` [Compound 83], the IC50 is above 10000 nM.

`CN(Cc1ccccc1)C(=O)N1CCC(O)(Cn2cnc3cc(Cl)ccc3c2=O)CC1` [Compound 38] yielded an IC50 of 200 to 1000 nM.

Regarding `CN(CC(=O)N1CCC(O)(Cn2cnc3cc(Cl)ccc3c2=O)CC1)c1ccccc1` [Compound 79], the IC50 was above 10000 nM.

`O=C(CCc1ccccc1)N1CCC(O)(Cn2cnc3cc(Cl)ccc3c2=O)C1` (stereo not drawn) [Compound 5, 7-chloro-3-((3-hydroxy-1-(3-phenylpropanoyl)pyrrolidin-3-yl)methyl)quinazolin-4(3H)-one] came in with an IC50 above 10000 nM.

`O=C(CCc1ccc2c(Cl)c3c(nc2c1)CCCC3)NCCC(=O)N1CCC(O)(Cn2cnc3cc(Cl)ccc3c2=O)CC1` [Compound 97] displayed an IC50 above 10000 nM.

Compound `CC(C)C(CC(=O)N1CCC(O)(Cn2cnc3cc(NC(=O)CCN4CCN(C)CC4)ccc3c2=O)CC1)c1ccccc1` (stereo not drawn) [Compound 13] gave an IC50 of 200 to 1000 nM.

In turn, `O=C(NCCCCC(=O)N1CCC(O)(Cn2cnc3cc(Cl)ccc3c2=O)CC1)c1ccc2c(Cl)c3c(nc2c1)CCCC3` [Compound 98] gave an IC50 of 200 to 1000 nM.

`CC(Cc1ccccc1)C(=O)N1CCC(O)(Cn2cnc3cc(Cl)ccc3c2=O)CC1` (stereo not drawn) [Compound 29]: the IC50 was in the range of 200 to 1000 nM.

Compound `O=c1c2ccc(Cl)cc2ncn1CC1(O)CCN(c2ccccc2)CC1` [Compound 70] registered an IC50 above 10000 nM.

For `O=C(NCC(=O)N1CCC(O)(Cn2cnc3cc(Cl)ccc3c2=O)CC1)c1ccc2c(Cl)c3c(nc2c1)CCCC3` [Compound 96], the IC50 is above 10000 nM.

In the case of `CC(CC(=O)N1CCC(O)(Cn2cnc3cc(NC(=O)CCN4CCN(C)CC4)ccc3c2=O)CC1)c1ccccc1` (stereo not drawn) [Compound 12], the IC50 is 200 to 1000 nM.

In turn, `O=C(CCC1CCCCC1)N1CCC(O)(Cn2cnc3cc(Cl)ccc3c2=O)CC1` [Compound 55] had an IC50 above 10000 nM.

In the case of `CN1CCN(CCC(=O)Nc2ccc3c(=O)n(CC4(O)CCN(C(=O)CC(c5ccccc5)c5ccccc5)CC4)cnc3c2)CC1` [Compound 48], the IC50 was below 200 nM.

Compound `O=C(NCCCC(=O)N1CCC(Cn2cnc3cc(Cl)ccc3c2=O)CC1)c1ccc2c(Cl)c3c(nc2c1)CCCC3` [Compound 100] showed an IC50 above 10000 nM.

On to `C[C@@H](CC(=O)N1CCC(O)(Cn2cnc3cc(NC(=O)CCN4CCN(C)CC4)ccc3c2=O)CC1)c1ccccc1` [Compound 11, (S)—N-(3-((4-Hydroxy-1-(3-phenylbutanoyl)piperidin-4-yl)methyl)-4-oxo-3,4-dihydroquinazolin-7-yl)-3-(4-methylpiperazin-1-yl)propanamide], for which the 50% inhibitory concentration (IC50) is below 200 nM.

In turn, `COc1ccccc1CCC(=O)N1CCC(O)(Cn2cnc3cc(Cl)ccc3c2=O)CC1` [Compound 87] returned an IC50 above 10000 nM.

In turn, `C[C@H](c1ccccc1)N(C)C(=O)N1CCC(O)(Cn2cnc3cc(Cl)ccc3c2=O)CC1` [Compound 41] displayed an IC50 above 10000 nM.

`CC(CC(=O)N1CCC(O)(Cn2cnc3cc(NC(=O)CCn4ccnc4)ccc3c2=O)CC1)c1ccccc1` (stereo not drawn) [Compound 16] registered an IC50 below 200 nM.

`C[C@H](CC(=O)N1CCC(O)(Cn2cnc3cc(Cl)ccc3c2=O)CC1)c1ccccc1` [Compound 1, (R)-7-Chloro-3-((4-hydroxy-1-(3-phenylbutanoyl)piperidin-4-yl)methyl)quinazolin-4(3H)-one] returned an IC50 below 200 nM.

With `CC(C(=O)N1CCC(O)(Cn2cnc3cc(Cl)ccc3c2=O)CC1)C(C)c1ccccc1` (stereo not drawn) [Compound 93], the IC50 lay in the range of 1000 to 10000 nM.

Compound `O=C(CCc1ccc(Br)cc1)N1CCC(O)(Cn2cnc3cc(Cl)ccc3c2=O)CC1` [Compound 23] gave an IC50 above 10000 nM.

The assay is the same for the next values; noted with them: USP7 inhibition, FIG. 2A.
Take `C[C@@H](CC(=O)N1CCC(O)(Cn2cnc3cc(NC(=O)CCN4CCN(C)CC4)ccc3c2=O)CC1)c1ccccc1` [Compound 11, (S)—N-(3-((4-Hydroxy-1-(3-phenylbutanoyl)piperidin-4-yl)methyl)-4-oxo-3,4-dihydroquinazolin-7-yl)-3-(4-methylpiperazin-1-yl)propanamide]: the “fold less active than its enantiomer compound 10” value was found to be 80 fold.
